Among the data in US11584763B2, “Chromenopyridine derivatives as phosphatidylinositol phosphate kinase inhibitors” (HIBERCELL, INC., priority 2017, dated 2023) are IC50 values, retold here.

Format in all cases: biochemical
Assay [1] has as its target T1, PIP4K 2A (Homo sapiens, UniProt P48426).
T1 sequence (P48426 1-406): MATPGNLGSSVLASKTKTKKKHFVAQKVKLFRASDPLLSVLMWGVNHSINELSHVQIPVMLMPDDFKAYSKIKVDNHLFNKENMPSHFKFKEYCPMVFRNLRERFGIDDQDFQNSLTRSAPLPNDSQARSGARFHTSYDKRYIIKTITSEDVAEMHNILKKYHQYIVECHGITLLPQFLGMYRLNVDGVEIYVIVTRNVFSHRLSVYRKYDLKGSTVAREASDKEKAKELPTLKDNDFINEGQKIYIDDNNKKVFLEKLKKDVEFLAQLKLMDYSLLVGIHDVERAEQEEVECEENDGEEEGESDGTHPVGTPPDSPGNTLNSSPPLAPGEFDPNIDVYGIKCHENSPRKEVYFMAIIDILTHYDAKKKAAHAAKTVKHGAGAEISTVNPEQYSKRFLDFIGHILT
In words: Kinase Assay PIP4K2 A (PIP4KtypeIIA inhibition assay). The conditions noted are these: compounds listed under IC50 bin headings. Set-up: made in house; host or cells: E. coli. From the text: GST tagged PIP4KtypeIIA and B enzymes were overexpressed in E. Coli and purified to >80% homogeneity. Phosphatidyl inositol-5-phosphate (PI5P, Cat. #850152, Avanti Polar Lipids Inc.) was used as the lipid substrate and phosphatidyl ethanolamine (DOPE 18:1, Cat. #850725, Avanti Polar Lipids Inc.) was used as the carrier lipid for assays. Ultrapure ATP and GTP was purchased from Bellbrooke Labs. ADP Glo reagents were obtained from Promega. Transcreener FI reagent was obtained from Bellbrooke labs.
Enzyme preparation: GST-tagged PIP4KtypeIIA (5 uL, 1.43 mg/mL) was diluted (1:10) to 50 uL using HNE buffer. From the 1:10 diluted stock, a 6.4 uL aliquot was diluted further to 5 mL using HNE buffer to yield 5× enzyme stock (2.5 nM).
Lipid Preparation: In a 10 mL pyrex glass vial, 1 ug of PI5P and 1 ug of DOPE were suspended in 2.5 mL of HEPES buffer mix and 2.5 mL of H:E buffer. The contents were mixed and sonicated for 3 min to yield a translucent lipid stock.
Compound Preparation: Compounds were stored as 5 mM stocks in neat DMSO as room temperature in glass vials. 5 mM stocks were diluted to 2 mM and then serially diluted (3×) in neat DMSO in 96 well polypropylene plates. From the serially diluted stocks, 3 uL was delivered into 250 uL of 25% DMSO (in water) to generate 5× compound stocks. Typically, the highest compound conc. was 24 uM.
The assay volume was kept at 25 uL. To each well of the reaction plate, 10 uL of lipid stock (1:1 ratio PI5P:DOPE) was delivered. This was followed by the addition of 5 uL of compound in 25% DMSO. Then, to each well, 5 uL of 2.5 nM (5×) typeIIA enzyme was delivered. The contents were mixed well and incubated for 1 h at 27 C. After 1 h, reaction was initiated by adding 5 uL of 50 uM ATP and the contents were mixed well with a multi-channel pipetteman. The final concentration of the reagents are as follows: 50 mM HEPES, pH 7.3, 10 mM MgCl2, 20 mM NaCl, 0.01% v/v triton-X100, 5% DMSO, 10 uM ATP, 80 uM (2 ug) PI5P, 2 ug DOPE, and 0.5 nM PIP4KIIA. Typically, the highest conc. of compounds was 4.8 uM and the lowest conc. was 0.
After 1 hr, the reaction was quenched by adding 25 uL of ADP Glo reagent. The contents were incubated for 1 hr. Afterwards, 50 uL of kinase detection reagent was delivered. The contents were incubated for another hour. The luminescence was read using Molecular Devices Paradigm plate reader. […] The blanks were averaged and subtracted from all other wells. Using a calibration curve, RLU was converted to uM ADP (product). IC50 was calculated by plotting the residual activity (expressed as % No inhibitor control) vs. log [Inh. conc.]

Assay [2] addresses T2, PIP4K2B (Homo sapiens, UniProt P78356).
T2 construct: made in house; host or cells: E. coli
T2 sequence (P78356 1-416): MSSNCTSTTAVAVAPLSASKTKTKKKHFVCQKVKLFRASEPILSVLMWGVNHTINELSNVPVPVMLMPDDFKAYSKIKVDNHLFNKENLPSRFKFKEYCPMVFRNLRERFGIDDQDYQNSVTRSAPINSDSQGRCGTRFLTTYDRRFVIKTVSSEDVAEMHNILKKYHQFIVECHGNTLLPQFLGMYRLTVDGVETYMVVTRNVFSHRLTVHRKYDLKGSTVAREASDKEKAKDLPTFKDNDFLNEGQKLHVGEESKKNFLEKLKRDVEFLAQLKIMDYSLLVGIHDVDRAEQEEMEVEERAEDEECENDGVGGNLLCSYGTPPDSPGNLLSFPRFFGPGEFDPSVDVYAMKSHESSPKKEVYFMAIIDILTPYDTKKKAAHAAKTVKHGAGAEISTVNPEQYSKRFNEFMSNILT
Put plainly: Trans-FI P kinase assay PIP4K2B (PIP4KtypeIIB inhibition assay). The conditions noted are these: compounds listed under IC50 bin headings; 100 uM GTP; read-out: Trans-FI P kinase assays: PIP4K2B IC50. The method in brief:
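GST-tagged human PIP4K2B (5 nM, E. coli-expressed) preincubated 1 h at 27 C with compound (top 4.8 uM, 5% DMSO), then reacted 2 h with 100 uM GTP and 80 uM PI5P/DOPE vesicles in HEPES pH 7.3, MgCl2, Triton X-100. GDP detected by Transcreener FI fluorescence via calibration curve; IC50 from % activity vs log[inhibitor].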

The target of assay [3] is T1, PIP4K 2A. Put plainly: ADP-glo kinase assay PIP4K 2A. Details: 4 nM PIP4K2A (full length protein, SignalChem); purchased SignalChem. To be noted: compounds listed under IC50 bin headings. A digest of the protocol: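 Full-length PIP4K2A was pre-incubated 15 min at RT with compound in 20 mM MOPS pH 7.2, 25 mM MgCl2, 0.005% Tween 20. The enzyme mix held 4 nM kinase and 100 μM PI(5)P diC8, and ATP was added from a 60 μM solution. After 1 h at RT, ADP-Glo luminescence gave % inhibition versus DMSO, fitted to IC50 over 10 threefold dilutions.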

pIC50: −log10 of the molar value. Some results are limits rather than exact numbers.

With `CN(C)C(=O)c1ccc2c(c1)OC(C1CC1)c1cc(Nc3cccnc3)ncc1-2` (stereo not drawn) [Example 34, 5-cyclopropyl-N,N-dimethyl-3-(pyridin-3-ylamino)-5H-chromeno[4,3-c]pyridine-8-carboxamide], the pIC50 in assay [1] is 8.00 to 9.00; in assay [2], 7.00 to 8.00; in assay [3] it was 8.00 to 9.00.
In the case of `CN(C)C(=O)c1ccc2c(c1)OC(C1CC1)c1cc(Nc3cncc(N4CCCC4=O)c3)ncc1-2` (stereo not drawn) [Example 35, 5-cyclopropyl-N,N-dimethyl-3-((5-(2-oxopyrrolidin-1-yl)pyridin-3-yl)amino)-5H-chromeno[4,3-c]pyridine-8-carboxamide], the pIC50 was ≥ 9.00 in assay [1], 8.00 to 9.00 in assay [2] and 8.00 to 9.00 in assay [3].
With `CN(C)C(=O)c1ccc2c(c1)OC(C1CC1)c1cc(Nc3cnc4c(c3)N3C(=O)CC[C@H]3CO4)ncc1-2` (stereo partly drawn) [Example 36, 5-cyclopropyl-N,N-dimethyl-3-(((S)-9-oxo-6a,7,8,9-tetrahydro-6H-pyrido[2,3-b]pyrrolo[1,2-d][1,4]oxazin-2-yl)amino)-5H-chromeno[4,3-c]pyridine-8-carboxamide], the pIC50 was ≥ 9.00 in assay [1], 8.00 to 9.00 in assay [2] and ≥ 9.00 in assay [3].
Take `CC1c2cc(Nc3cccnc3)ncc2-c2ccc(C(=O)N(C)C)cc2N1C` (stereo not drawn) [Example 37, N,N,5,6-tetramethyl-3-(pyridin-3-ylamino)-5,6-dihydrobenzo[c][2,6]naphthyridine-8-carboxamide]: the values for the pIC50 in assay [1], in assay [2] and in assay [3] were 8.00 to 9.00, 6.00 to 7.00 and 7.00 to 8.00, respectively.
With `CC1Oc2cc(N3CCCC3=O)ccc2-c2cnc(Nc3cccnc3)cc21` (stereo not drawn) [Example 38, 1-(5-methyl-3-(pyridin-3-ylamino)-5H-chromeno[4,3-c]pyridin-8-yl)pyrrolidin-2-one], the pIC50 is 8.00 to 9.00 in assay [1], 6.00 to 7.00 in assay [2] and 8.00 to 9.00 in assay [3].
In the case of `CC1Oc2cc(N3CCCC3=O)ccc2-c2cnc(Nc3cnc4c(c3)N3C(=O)CC[C@H]3CO4)cc21` (stereo partly drawn) [Example 40, (6aS)-2-((5-methyl-8-(2-oxopyrrolidin-1-yl)-5H-chromeno[4,3-c]pyridin-3-yl)amino)-6,6a,7,8-tetrahydro-9H-pyrido[2,3-b]pyrrolo[1,2-d][1,4]oxazin-9-one], the values for the pIC50 in assay [1], in assay [2] and in assay [3] were ≥ 9.00, 8.00 to 9.00 and ≥ 9.00, respectively.
For the molecule `CC1Oc2cc(N3CCCC3=O)ccc2-c2cnc(Nc3cncc(OC(F)F)c3)cc21` (stereo not drawn) [Example 41, 1-(3-((5-(difluoromethoxy)pyridin-3-yl)amino)-5-methyl-5H-chromeno[4,3-c]pyridin-8-yl)pyrrolidin-2-one], the pIC50 in assay [1] is 8.00 to 9.00; in assay [2] it was < 6.00; in assay [3], 7.00 to 8.00.
As to `CC(=O)N1CCOc2ncc(Nc3cc4c(cn3)-c3ccc(N5CCCC5=O)cc3OC4C)cc21` (stereo not drawn) [Example 42, 1-(3-((1-acetyl-2,3-dihydro-1H-pyrido[2,3-b][1,4]oxazin-7-yl)amino)-5-methyl-5H-chromeno[4,3-c]pyridin-8-yl)pyrrolidin-2-one], the pIC50 was ≥ 9.00 in assay [1], 7.00 to 8.00 in assay [2] and 8.00 to 9.00 in assay [3].
Turning to `CC1c2cc(Nc3cccnc3)ncc2-c2ccc(N3CCCC3=O)cc2N1C` (stereo not drawn) [Example 43, 1-(5,6-dimethyl-3-(pyridin-3-ylamino)-5,6-dihydrobenzo[c][2,6]naphthyridin-8-yl)pyrrolidin-2-one], the pIC50 in assay [1] was 7.00 to 8.00; in assay [2] it was < 6.00; in assay [3], 7.00 to 8.00.
As to `CC1c2cc(Nc3cnc4c(c3)N3C(=O)CC[C@H]3CO4)ncc2-c2ccc(N3CCCC3=O)cc2N1C` (stereo partly drawn) [Example 44, (6aS)-2-((5,6-dimethyl-8-(2-oxopyrrolidin-1-yl)-5,6-dihydrobenzo[c][2,6]naphthyridin-3-yl)amino)-6,6a,7,8-tetrahydro-9H-pyrido[2,3-b]pyrrolo[1,2-d][1,4]oxazin-9-one], the pIC50 was ≥ 9.00 in assay [1], 7.00 to 8.00 in assay [2] and 8.00 to 9.00 in assay [3].
Consider `CC1c2cc(Nc3cnc4c(c3)OCCO4)ncc2-c2ccc(N3CCCC3=O)cc2N1C` (stereo not drawn) [Example 45, 1-(3-((2,3-dihydro-[1,4]dioxino[2,3-b]pyridin-7-yl)amino)-5,6-dimethyl-5,6-dihydrobenzo[c][2,6]naphthyridin-8-yl)pyrrolidin-2-one], for which the values for the pIC50 in assay [1], in assay [2] and in assay [3] were 8.00 to 9.00, 6.00 to 7.00 and 7.00 to 8.00, respectively.
With `CC1Oc2cc(N3CCCC3=O)c(F)cc2-c2cnc(Nc3cccnc3)cc21` (stereo not drawn) [Example 46, 1-(9-fluoro-5-methyl-3-(pyridin-3-ylamino)-5H-chromeno[4,3-c]pyridin-8-yl)pyrrolidin-2-one], the pIC50 in assay [1] is 8.00 to 9.00; in assay [2], 6.00 to 7.00; in assay [3] it was 7.00 to 8.00.
Regarding `CC1Oc2cc(N3CCCC3=O)c(F)cc2-c2cnc(Nc3cnc4c(c3)N3C(=O)CC[C@H]3CO4)cc21` (stereo partly drawn) [Example 47, (6aS)-2-((9-fluoro-5-methyl-8-(2-oxopyrrolidin-1-yl)-5H-chromeno[4,3-c]pyridin-3-yl)amino)-6,6a,7,8-tetrahydro-9H-pyrido[2,3-b]pyrrolo[1,2-d][1,4]oxazin-9-one], the figures for the pIC50 in assay [1], in assay [2] and in assay [3] were ≥ 9.00, 8.00 to 9.00 and ≥ 9.00, respectively.
For the molecule `CC1Oc2cc(N3CCCC3=O)ccc2-c2cnc(Nc3cncc(N(C)S(C)(=O)=O)c3)cc21` (stereo not drawn) [Example 48, N-methyl-N-(5-((5-methyl-8-(2-oxopyrrolidin-1-yl)-5H-chromeno[4,3-c]pyridin-3-yl)amino)pyridin-3-yl)methanesulfonamide], the pIC50 in assay [1] was 8.00 to 9.00; in assay [2], 6.00 to 7.00; in assay [3], 8.00 to 9.00.
For `CC1Oc2cc(N3CCCC3=O)ccc2-c2cnc(Nc3cnc4c(c3)N(S(C)(=O)=O)CCO4)cc21` (stereo not drawn) [Example 49, 1-(5-methyl-3-((1-(methylsulfonyl)-2,3-dihydro-1H-pyrido[2,3-b][1,4]oxazin-7-yl)amino)-5H-chromeno[4,3-c]pyridin-8-yl)pyrrolidin-2-one], the results for the pIC50 in assay [1], in assay [2] and in assay [3] were ≥ 9.00, 6.00 to 7.00 and 8.00 to 9.00, respectively.

In general, pIC50 refers to −log10 of the IC50, conventionally taken in molar units.
